Reference: patent US7094802B2, “PKB-3564 substance with neovascularization inhibitory activity” (Riken, priority 2001, dated 2006)
≈ marks a conversion by molar mass, not a printed value.

Columns and labels:
Jurkat cells = assay: Suppression of Fas antibody-induced apoptosis, survival rate by MTT method; assay type: cell-based; settings: Homo sapiens, Fas antibody CH-11 100 ng/ml, 6 hours, read-out: concentration that inhibited 50% of apoptosis induced by Fas antibody
Method: Jurkat cells, an […] T cell leukemia cell line expressing Fas, were used as Fas antibody sensitive cells. The Jurkat cells were cultured in a RPMI medium containing 10% calf serum in an incubator that contained 5% carbon dioxide and was saturated with stream. The Jurkat cells in the logarithmic proliferation period were added with RKB-3564A, RKB-3564B, RKB-3564D, RKB-3564E, and RKB-3564F in a series of dilution, and cultured in the presence of Fas antibody, CH-11 (Medical & Biological Laboratories Co., Ltd., 100 ng/ml) for 6 hours, and the survival rate of the cells was assayed by the MTT method. The survival rate was calculated according to the following formula. Survival rate (%)={[(absorbance in the presence of anti-Fas antibody and the compound)−(absorbance in the presence of anti-Fas antibody and in the absence of the compound)]/[(absorbance in the absence of anti-Fas antibody and the compound)−(absorbance in the presence of anti-Fas antibody and in the absence of the compound)]}×100

| SMILES | IC50 (Jurkat cells) [µg/mL] | Solubility in methanol or dimethyl sulfoxide (Solubility in solvents; methanol or dimethyl sulfoxide) | Solubility in n-hexane (Solubility in solvents; n-hexane) |
| --- | --- | --- | --- |
| CC1OC2C3=C(C(=O)C4OC4C3O)C1C1C(C)OC=C3C(O)C4OC4C(=O)C321 (single isomer, unassigned) [RKB-3564A] | 3 to 10 (≈ 7.72 to 25.7 µM) |  |  |
| CC1OC2C3=C(C(=O)C4OC4C3O)C1C1C3=C(C(O)C4OC4C3=O)C2OC1C (centres unmarked) [RKB-3564D] | 3 to 10 (≈ 7.72 to 25.7 µM) | easily soluble | Insoluble |
| CC1OC2C3=C(C(=O)C4OC4C3O)C1C1C(C)OC=C3C(O)C4OC4C(=O)C321 (centres unmarked) [RKB-3564E] | 3 to 10 (≈ 7.72 to 25.7 µM) |  |  |
